# Source: patent US20220386635A1, “NITRITE REPLACEMENT (CURING AIDS) CONTAINING NATURAL INGREDIENTS” (KEMIN INDUSTRIES, INC., priority 2021, published 2022)
# “And” between values parts separate entries of the source, which are not always exact repeats. Equal entries are not always repeated. Where two headings read alike, the source gives them in different places. Marks after values point to notes of the source that are not given here.
# Columns and labels:
# [1] = Color evaluation (L*a*b*, C*, hue) of sausages with black carrot extract, Example 2; conditions: 50 days at 7° C., dark or illuminated last 72 h
# Listeria monocytogenes [2] = assay: Listeria monocytogenes challenge test, Example 5 experiment 1; assay type: cell-based
# [3] = system: C. botulinum spores (Type A: NCTC 7272, Type E: LFMFP-CB 707 and Type E: LFMFP-CB 666); assay type: cell-based, Clostridium botulinum; conditions: 7° C.; for Anaerobic count: Blend 0.4%, Repl 1 and Repl 2
# botulinum toxin = system: botulinum toxin; set-up: species or system Clostridium botulinum
# Listeria monocytogenes [4] = assay: Listeria monocytogenes challenge study, Example 6; assay type: cell-based; conditions: after 3 weeks at 7° C.; inoculum 2.6 log10CFU/g
# C. botulinum spores = assay type: cell-based, Clostridium botulinum
# [5] = Lipid oxidation (TBARS) in cooked sausages; conditions: 7° C., shelf life of 8 weeks; threshold for off-odor 0.5 ppm
# [6] = Physico-chemical parameters of low salt emulsified cooked pork sausages, Example 6
# [7] = low salt (1.2%) sausage, dosages per Table 23
# [8] = low salt sausage, dosages per Table 23
smiles,measurement,setting,value
"O=NO [Positive control, sodium nitrite]",Color stability during storage,[1],faded drastically
same,L. monocytogenes count,"Listeria monocytogenes [2]; after 8 weeks at 7° C., inoculum 300 CFU/g",7 log10CFU/g
same,time to 1 log increase of L. monocytogenes,"Listeria monocytogenes [2]; positive control with nitrite, 7° C.",14 days
same,growth of C. botulinum,"[3]; 8 weeks, 0.4% of the invented blend",no growth
same,Anaerobic count,[3]; storage time 0 days,3.08 log10CFU/g and 2.73 log10CFU/g
same,Anaerobic count,[3]; storage time 14 days,2.75 log10CFU/g and 2.70 log10CFU/g
same,Anaerobic count,[3]; storage time 28 days,2.61 log10CFU/g and 2.62 log10CFU/g
same,Anaerobic count,[3]; storage time 42 days,2.67 log10CFU/g and 2.46 log10CFU/g
same,Anaerobic count,[3]; storage time 56 days,2.49 log10CFU/g and 2.43 log10CFU/g
same,Number of samples in which botulinum toxin was detected to total analyzed samples,botulinum toxin,0/2
same,L. monocytogenes count,Listeria monocytogenes [4],more than 7 log10CFU/g
same,Clostridium botulinum outgrowth,"C. botulinum spores; 7° C., 8 weeks, significant growth = >0.5 log10CFU/g",no growth of C. botulinum
same,"Anaerobic count (average ± standard deviation, n = 2)","C. botulinum spores; storage time 0 days at 7° C., dosages per Table 23",3.7 ± 0.1 log10CFU/g
same,"Anaerobic count (average ± standard deviation, n = 2)","C. botulinum spores; storage time 14 days at 7° C., * significant outgrowth (>0.5 log10CFU/g) in at least one replicate",2.3 ± 0.3 log10CFU/g
same,"Anaerobic count (average ± standard deviation, n = 2)","C. botulinum spores; storage time 24 days at 7° C., * significant outgrowth (>0.5 log10CFU/g) in at least one replicate",2.4 ± 0.0 log10CFU/g
same,"Anaerobic count (average ± standard deviation, n = 2)","C. botulinum spores; storage time 42 days at 7° C., * significant outgrowth (>0.5 log10CFU/g) in at least one replicate",2.2 ± 0.1 log10CFU/g
same,"Anaerobic count (average ± standard deviation, n = 2)","C. botulinum spores; storage time 56 days at 7° C., * significant outgrowth (>0.5 log10CFU/g) in at least one replicate",2.2 ± 0.0 log10CFU/g
same,Lipid oxidation (TBARS values),[5],maintain low TBARS values
same,aw,"[6]; 25° C., low salt sausage, dosages per Table 23",0.978
same,Salt content,"[6]; calculated based on sodium content, low salt sausage",1.55%
same,Salt content in aqueous phase,[6]; calculated from salt content and moisture content,2.9%
same,pH of cooked meat,[6]; [7],6.21^a
same,pH of meat batter,[6]; [7],5.87^ab
same,Acetic acid content,[6]; [8],0.008%
same,Moisture content,[6]; [8],52.3%
